Data: patent US20250333440A1, “Azole Tripeptides as Vasodilators” (University of Kansas, priority 2024, published 2025)

What was measured:
[1] = tested on: blood vessels in the CAM; assay: chick chorioallantoic membrane assay (CAM), vasculature analysed with NIH ImageJ; assay type: in vivo, Brown Leghorn chicken embryos; conditions: for effect on branching compared to DMSO control / effect on vascular density (VD) compared to DMSO control / effect on vessel diameter compared to DMSO control / effect on vessel length density (VLD) compared to DMSO control: 24 h after administration
Method: (§1) At day 2, the egg was carefully cleaned with isopropanol again and a small opening was carved near its air sac through which approximately 3 mL of albumin was removed. The opening was sealed with medical tape and a larger square opening of approximately 1×1 cm was carved near the center of the egg using a Dremer Stylo+ tool. The egg was further cleaned in order to remove debris and the eggshell membrane was carefully removed using sterilized tweezers. The opening was sealed using clear tape and the eggs were incubated for four more days under the same conditions after disabling the auto-turning mechanism of the incubator.
(§2) The tape covering the opening in the egg was carefully removed and the disc was carefully placed on top of the chorioallantoic membrane (e.g., CAM) using sterilized tweezers, then the opening was resealed, and the eggs were placed again in the incubator.
(§3) The paper disc was carefully removed, and the CAM was photographed. For the Miles assay approximately 100 μl of a 1% w/v solution of Evans Blue dye was injected in the CAM and infiltration of the dye into the blood vessels was analyzed using an Andonstar digital microscope equipped with a 60× magnification lens. If the dye infiltrated the blood vessels the test was considered positive. The photographs were later cropped to include only the CAM and analyzed using the NIH ImageJ software package as follows.
To analyze the extent of branching the blood vessels were carefully traced in order for the ImageJ software to be able to distinguish them for the background. The traced images were opened on the ImageJ software, converted into an 8 bit image and the threshold was adjusted to exclude any possible background signal. This process gave a binary (black and white) map of the vasculature which was then skeletonized (converted into a 1 pixel wide map) and the skeleton was analyzed to determine the number of branches and junction voxels (pixels connected to more than 2 other pixels, i.e. pixels in which the map divides).
To analyze the vascular length density and vascular density the cropped image was opened on the ImageJ software, and the Mexican Hat filter plugin was applied using a radius of 5.0. After this, the image was made binary and the Vascular Density function of the Vessel Analysis plugin was used to determine both parameters after carefully tracing the image so that only the CAM area was included on the calculation.
To analyze the vessel the cropped image was opened on the ImageJ software, and the Mexican Hat filter plugin was applied using a radius of 5.0.

[2] = tested on: chicken embryos; assay type: in vivo, Brown Leghorn chicken embryos; set-up: embryo survival: unit of the concentration uncertain; conditions: for embryo survival: 40 (unit uncertain) dose; for embryo survival / embryos that survived: 24 h; for embryos that survived: 40 μM dose
Method: as §1, §2
The protocol included DMSO as a negative control and Razuprotafib as a positive control. The protocol also included the heptapeptide NLLMAAS as a negative control, which is an orthosteric antagonist of ANG-1.

[3] = tested on: chicken embryos exposed to CoCl2; assay: rescue of embryos administered a 100-fold lethal dose of hypoxia-inducing CoCl2; assay type: in vivo; conditions: CoCl2 1 M; 2.4 g/kg on Day 6
[4] = tested on: blood vessels in the CAM; assay: Miles assay (Evans Blue) / vascular permeability in the CAM; set-up: species or system Brown Leghorn chicken embryos; conditions: in vivo
Method: as §3, with “After 24 hours, the tape was removed, and the opening was further expanded until all the possible area of the CAM was exposed. The paper” for “The paper”

[5] = single dose 40 μM (0.91 mg/kg) on Day 6, 24 h post dose

## COC(=O)N[C@@H](Cc1ccccc1)C(=O)N[C@@H](Cc1ccc(NS(=O)(=O)O)cc1)c1csc(-c2cccs2)n1 [Razuprotafib]
[1]; 40 μM
  effect on branching compared to DMSO control: no changes were observed
  effect on vascular density (VD) compared to DMSO control: no changes were observed
  effect on vessel diameter compared to DMSO control: no changes were observed
  effect on vessel length density (VLD) compared to DMSO control: no changes were observed
[2]
  embryo survival: almost all embryos

## COC(=O)[C@H](Cn1cncn1)NC(=O)[C@H](Cn1nnnc1C)NC(=O)[C@H](Cn1nnc2ccccc21)NC(=O)C(F)(F)F [Compound 1, methyl (S)-2-((S)-2-((S)-3-(1H-benzo[d][1,2,3]triazol-1-yl)-2-(2,2,2-trifluoroacetamido)propanamido)-3-(5-methyl-1H-tetrazol-1-yl)propanamido)-3-(1H-1,2,4-triazol-1-yl)propanoate]
[1]; 40 μM
  aberrant angiogenesis or vascular remodeling (vessel density/branching mapping): did not induce
[1]; CAM
  time for which activity comparable to FDA approved vasodilators at 10 minutes was maintained: 24 h
[1]; [5]
  decrease in vessel length density (VLD) compared with DMSO control: 17%
  increase in vessel diameter compared with DMSO control: 124%
[1]; single dose 40 μM (0.91 mg/kg) on Day 6, 24 h post dose, listed as Compound 2
  decrease in vessel length density (VLD) compared with DMSO control: 17%
[3]
  embryos rescued from a 100-fold lethal dose of CoCl2: 25%
[2]
  embryo survival: almost all embryos
[2]; single (Day 6) dosing at 40 μM
  indications of hazardous tumor growth or teratogenic effects: no indications
  mortality rates: not statistically significant
[4]
  integrity of vessel cell walls (Miles assay): did not weaken
  vascular permeability: did not increase permeability

## NLLMAAS [heptapeptide NLLMAAS, an orthosteric antagonist of ANG-1 (antiangiogenic), negative control]
[1]; 40 mM (1075 mg/Kg)
  effect on branching compared to DMSO control: did not have any effects
  effect on vascular density (VD) compared to DMSO control: did not have any effects
  effect on vessel diameter compared to DMSO control: did not have any effects
  effect on vessel length density (VLD) compared to DMSO control: did not have any effects

## CCOC(=O)C1=C(COCCN)NC(C)=C(C(=O)OC)C1c1ccccc1Cl (centres unmarked) [amlodipine]
[2]
  embryos that survived: Two out of three

## O=[N+]([O-])O[C@@H]1CO[C@H]2[C@@H]1OC[C@@H]2O [isosorbide, isosorbide mononitrate]
[1]; 40 μM
  effect on vascular density (VD) compared to DMSO control: did not observe effects
  effect on vessel diameter compared to DMSO control: did not observe effects
  effect on vessel length density (VLD) compared to DMSO control: did not observe effects
[2]
  embryos that survived: Two out of three

B1: ANG-1 protein: ANG-1 protein (Gibco) (protein, UniProt Q15389 16-498, looked up)
Angiopoietin-1: HIGCSNQRRSPENSGRRYNRIQHGQCAYTFILPEHDGNCRESTTDQYNTNALQRDAPHVEPDFSSQKLQHLEHVMENYTQWLQKLENYIVENMKSEMAQIQQNAVQNHTATMLEIGTSLLSQTAEQTRKLTDVETQVLNQTSRLEIQLLENSLSTYKLEKQLLQQTNEILKIHEKNSLLEHKILEMEGKHKEELDTLKEEKENLQGLVTRQTYIIQELEKQLNRATTNNSVLQKQQLELMDTVHNLVNLCTKEGVLLKGGKREEEKPFRDCADVYQAGFNKSGIYTIYINNMPEPKKVFCNMDVNGGGWTVIQHREDGSLDFQRGWKEYKMGFGNPSGEYWLGNEFIFAITSQRQYMLRIELMDWEGNRAYSQYDRFHIGNEKQNYRLYLKGHTGTAGKQSSLILHGADFSTKDADNDNCMCKCALMLTGGWWFDACGPSNLNGMFYTAGQNHGKLNGIKWHYFKGPSYSLRSTTMMIRPLDF
[1]; 0.75 mg/Kg (proteins 18.87 μM, antibody 1 mg/mL)
  effects on CAM vasculature (vessel diameter, vessel length density) compared to DMSO controls: did not produce any effects significantly different
